Source: ChEMBL document CHEMBL5316318, “Structural Modification and Pharmacological Evaluation of Substituted Quinoline-5,8-diones as Potent NSD2 Inhibitors” (J Med Chem, 2023)
The source made the active and inactive calls. No cut-off for these calls is given here.

What was measured:
[1] = biological target: Histone-lysine N-methyltransferase, H3 lysine-36 specific (Homo sapiens, UniProt Q96L73); test: Inhibition of NSD1 (unknown origin)
[2] = Tmax in ICR mouse at 3 mg/kg, po measured for 24 hrs by LC-MS/MS analysis; type: ADME, organism-based; conditions: in vivo
[3] = biological target: Hepatocyte growth factor receptor (Homo sapiens) (UniProt P08581); test: Inhibition of MET transcriptional activation in human KMS-11 cells assessed as reduction in H3K36me2 level in promoter region by ChIP-qPCR analysis; type: cell-based
Sequence of Hepatocyte growth factor receptor (Homo sapiens) (P08581 whole entry): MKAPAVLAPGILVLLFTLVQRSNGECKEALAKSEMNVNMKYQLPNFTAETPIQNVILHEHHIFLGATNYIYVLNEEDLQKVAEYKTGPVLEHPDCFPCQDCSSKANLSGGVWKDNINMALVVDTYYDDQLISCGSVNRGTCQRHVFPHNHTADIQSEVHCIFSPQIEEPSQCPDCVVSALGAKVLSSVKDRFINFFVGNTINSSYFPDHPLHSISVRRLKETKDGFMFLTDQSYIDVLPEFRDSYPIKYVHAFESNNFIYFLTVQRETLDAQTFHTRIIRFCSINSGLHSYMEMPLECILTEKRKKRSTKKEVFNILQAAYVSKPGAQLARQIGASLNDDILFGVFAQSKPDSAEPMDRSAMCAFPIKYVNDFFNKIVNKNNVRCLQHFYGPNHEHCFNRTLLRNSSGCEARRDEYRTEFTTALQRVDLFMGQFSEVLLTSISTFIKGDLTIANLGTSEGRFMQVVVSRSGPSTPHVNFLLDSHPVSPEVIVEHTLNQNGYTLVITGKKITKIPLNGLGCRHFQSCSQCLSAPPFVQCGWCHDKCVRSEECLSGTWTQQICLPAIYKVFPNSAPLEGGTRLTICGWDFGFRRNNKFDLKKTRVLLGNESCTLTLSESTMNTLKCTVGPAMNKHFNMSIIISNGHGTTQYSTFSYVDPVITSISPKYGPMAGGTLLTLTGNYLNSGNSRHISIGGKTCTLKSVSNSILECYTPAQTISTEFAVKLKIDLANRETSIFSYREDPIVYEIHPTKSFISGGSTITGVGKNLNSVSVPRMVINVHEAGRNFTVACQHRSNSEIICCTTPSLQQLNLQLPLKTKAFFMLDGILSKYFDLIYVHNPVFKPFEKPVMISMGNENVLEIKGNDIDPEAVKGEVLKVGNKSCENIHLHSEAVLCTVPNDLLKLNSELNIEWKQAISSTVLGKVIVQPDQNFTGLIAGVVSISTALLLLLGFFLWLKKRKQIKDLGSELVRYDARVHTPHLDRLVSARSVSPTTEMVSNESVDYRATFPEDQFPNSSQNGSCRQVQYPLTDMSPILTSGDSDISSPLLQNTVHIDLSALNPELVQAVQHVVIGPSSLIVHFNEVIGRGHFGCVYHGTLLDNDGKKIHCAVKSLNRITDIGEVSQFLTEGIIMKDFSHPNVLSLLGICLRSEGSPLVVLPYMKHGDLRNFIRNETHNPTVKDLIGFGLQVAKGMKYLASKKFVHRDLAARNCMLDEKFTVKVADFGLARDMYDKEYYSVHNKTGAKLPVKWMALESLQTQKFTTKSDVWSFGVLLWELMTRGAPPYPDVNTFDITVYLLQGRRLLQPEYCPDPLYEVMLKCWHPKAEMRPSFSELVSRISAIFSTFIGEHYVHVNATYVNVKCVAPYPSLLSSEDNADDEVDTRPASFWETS

[4] = biological target: Protransforming growth factor alpha (Homo sapiens) (UniProt P01135); test: Inhibition of TGFA transcriptional activation in human KMS-11 cells assessed as reduction in TGFA mRNA expression at 0.5 uM by qRT-PCR analysis; type: cell-based
Sequence of Protransforming growth factor alpha (Homo sapiens) (P01135 whole entry): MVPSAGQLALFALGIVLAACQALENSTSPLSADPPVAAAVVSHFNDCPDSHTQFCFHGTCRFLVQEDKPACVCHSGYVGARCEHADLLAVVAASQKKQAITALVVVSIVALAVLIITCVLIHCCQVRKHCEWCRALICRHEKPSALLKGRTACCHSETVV

KMS-11 [5] = test: Induction of apoptosis in human KMS-11 cells assessed as upregulation of BID protein expression at 0.2 to 0.8 uM by Western blot analysis; type: functional, cell-based; conditions: dose 0.2-0.8 µM
MOLM-13 = test: Antiproliferative activity against human MOLM-13 cells harboring wild type NSD2 assessed as inhibition of cell growth incubated for 6 days by CCK-8 assay; type: functional, cell-based; conditions: MOLM-13, 144 h
[6] = biological target: Basement membrane-specific heparan sulfate proteoglycan core protein (Homo sapiens) (UniProt P98160); test: Inhibition of HSPG2 transcriptional activation in human KMS-11 cells assessed as reduction in H3K36me2 level in promoter region by ChIP-qPCR analysis; type: cell-based
[7] = biological target: Neural cell adhesion molecule 1 (Homo sapiens) (UniProt P13591); test: Inhibition of NCAM1 transcriptional activation in human KMS-11 cells assessed as reduction in NCAM1 mRNA expression at 0.5 uM by qRT-PCR analysis; type: cell-based
Sequence of Neural cell adhesion molecule 1 (Homo sapiens) (P13591 whole entry): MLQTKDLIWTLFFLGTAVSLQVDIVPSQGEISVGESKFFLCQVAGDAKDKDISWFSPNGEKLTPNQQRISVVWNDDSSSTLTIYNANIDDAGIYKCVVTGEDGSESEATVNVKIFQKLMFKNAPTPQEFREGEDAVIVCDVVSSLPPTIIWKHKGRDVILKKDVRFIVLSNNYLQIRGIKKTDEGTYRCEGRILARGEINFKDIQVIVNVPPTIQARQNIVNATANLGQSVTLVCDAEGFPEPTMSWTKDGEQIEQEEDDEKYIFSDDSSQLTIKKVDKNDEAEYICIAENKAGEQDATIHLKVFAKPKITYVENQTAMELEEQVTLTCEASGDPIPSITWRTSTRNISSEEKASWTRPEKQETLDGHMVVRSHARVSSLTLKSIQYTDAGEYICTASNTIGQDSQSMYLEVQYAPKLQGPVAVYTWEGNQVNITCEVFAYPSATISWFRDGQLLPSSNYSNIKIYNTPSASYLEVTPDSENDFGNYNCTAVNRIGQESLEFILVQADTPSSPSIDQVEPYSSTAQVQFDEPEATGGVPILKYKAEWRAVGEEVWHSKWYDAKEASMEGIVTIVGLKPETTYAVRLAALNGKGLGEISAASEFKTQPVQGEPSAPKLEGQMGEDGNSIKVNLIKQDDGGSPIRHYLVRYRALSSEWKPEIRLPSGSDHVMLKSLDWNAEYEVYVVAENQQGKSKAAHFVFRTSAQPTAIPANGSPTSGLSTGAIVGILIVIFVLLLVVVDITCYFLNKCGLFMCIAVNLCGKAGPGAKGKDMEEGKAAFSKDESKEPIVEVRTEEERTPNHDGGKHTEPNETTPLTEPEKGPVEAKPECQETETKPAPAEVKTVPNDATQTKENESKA

[8] = biological target: Histone-arginine methyltransferase CARM1 (Homo sapiens, UniProt Q86X55); test: Inhibition of PRMT4 (unknown origin) by AlphaLISA assay
Sequence of Histone-arginine methyltransferase CARM1 (Q86X55 whole entry): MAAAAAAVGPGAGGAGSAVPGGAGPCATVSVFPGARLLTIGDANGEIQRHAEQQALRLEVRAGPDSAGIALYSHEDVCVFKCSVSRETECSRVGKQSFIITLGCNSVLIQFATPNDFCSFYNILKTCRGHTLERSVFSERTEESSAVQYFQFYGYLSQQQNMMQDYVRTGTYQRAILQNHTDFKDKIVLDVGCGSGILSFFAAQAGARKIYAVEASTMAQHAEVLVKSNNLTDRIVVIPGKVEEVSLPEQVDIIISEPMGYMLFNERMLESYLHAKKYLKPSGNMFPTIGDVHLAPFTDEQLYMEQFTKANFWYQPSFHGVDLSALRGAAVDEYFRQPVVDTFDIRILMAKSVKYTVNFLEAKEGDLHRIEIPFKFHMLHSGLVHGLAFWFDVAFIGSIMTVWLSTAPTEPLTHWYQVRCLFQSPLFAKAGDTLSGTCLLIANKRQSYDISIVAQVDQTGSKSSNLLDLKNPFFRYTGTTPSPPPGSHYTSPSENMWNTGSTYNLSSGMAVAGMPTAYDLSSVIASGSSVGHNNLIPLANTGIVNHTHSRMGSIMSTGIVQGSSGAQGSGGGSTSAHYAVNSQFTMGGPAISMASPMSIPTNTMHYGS

HL-60 = test: Antiproliferative activity against human HL-60 cells harboring wild type NSD2 assessed as inhibition of cell growth incubated for 6 days by CCK-8 assay; type: functional, cell-based; conditions: HL-60, 144 h
[9] = Half life in ICR mouse at 1 mg/kg, iv measured for 24 hrs by LC-MS/MS analysis; type: ADME, organism-based; conditions: in vivo
KMS-11 [10] = test: Modulation of FoxO signaling pathway in human KMS-11 cells at 1 uM incubated for 48 hrs by RNA-Seq analysis; type: cell-based; conditions: filed as modulator
KMS-11 [11] = test: Antitumor activity against human KMS-11 cells xenografted in SCID mouse assessed as tumor growth inhibition at 150 mg/kg, po administered daily for 21 days and measured every 3 days relative to control; type: functional; conditions: KMS-11, 504 h, time 21 day, read-out: TGI
[12] = Toxicity in SCID mouse xenografted with human KMS-11 cells assessed as adverse effects at 75 to 150 mg/kg, po administered daily for 21 days and measured every 3 days; type: organism-based; conditions: in vivo, 504 h, dose 75-150 mg/kg, time 21 day
[13] = Half life in ICR mouse at 3 mg/kg, po measured for 24 hrs by LC-MS/MS analysis; type: ADME, organism-based; conditions: in vivo
[14] = biological target: Protein arginine N-methyltransferase 1 (Homo sapiens, UniProt Q99873); test: Inhibition of PRMT1 (unknown origin) by AlphaLISA assay
Sequence of Protein arginine N-methyltransferase 1 (Q99873 whole entry, the tested form may be a part): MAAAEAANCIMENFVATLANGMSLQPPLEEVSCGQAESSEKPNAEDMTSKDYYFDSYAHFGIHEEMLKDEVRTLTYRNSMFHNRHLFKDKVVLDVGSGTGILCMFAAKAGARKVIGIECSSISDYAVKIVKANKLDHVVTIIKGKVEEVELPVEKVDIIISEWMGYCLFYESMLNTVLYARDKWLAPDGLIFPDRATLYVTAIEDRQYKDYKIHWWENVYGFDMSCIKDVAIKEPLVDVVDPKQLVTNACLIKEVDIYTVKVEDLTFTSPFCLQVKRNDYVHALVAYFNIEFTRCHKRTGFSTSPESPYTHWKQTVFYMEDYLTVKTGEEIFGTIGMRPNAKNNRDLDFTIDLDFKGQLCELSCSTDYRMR

[15] = biological target: T1, Histone-lysine N-methyltransferase NSD2 (Homo sapiens, UniProt O96028); test: Inhibition of recombinant human NSD2 (941 to 1240 residues) using SAM as substrate incubated for 3 hrs by AlphaLISA assay
T1 sequence (O96028 whole entry): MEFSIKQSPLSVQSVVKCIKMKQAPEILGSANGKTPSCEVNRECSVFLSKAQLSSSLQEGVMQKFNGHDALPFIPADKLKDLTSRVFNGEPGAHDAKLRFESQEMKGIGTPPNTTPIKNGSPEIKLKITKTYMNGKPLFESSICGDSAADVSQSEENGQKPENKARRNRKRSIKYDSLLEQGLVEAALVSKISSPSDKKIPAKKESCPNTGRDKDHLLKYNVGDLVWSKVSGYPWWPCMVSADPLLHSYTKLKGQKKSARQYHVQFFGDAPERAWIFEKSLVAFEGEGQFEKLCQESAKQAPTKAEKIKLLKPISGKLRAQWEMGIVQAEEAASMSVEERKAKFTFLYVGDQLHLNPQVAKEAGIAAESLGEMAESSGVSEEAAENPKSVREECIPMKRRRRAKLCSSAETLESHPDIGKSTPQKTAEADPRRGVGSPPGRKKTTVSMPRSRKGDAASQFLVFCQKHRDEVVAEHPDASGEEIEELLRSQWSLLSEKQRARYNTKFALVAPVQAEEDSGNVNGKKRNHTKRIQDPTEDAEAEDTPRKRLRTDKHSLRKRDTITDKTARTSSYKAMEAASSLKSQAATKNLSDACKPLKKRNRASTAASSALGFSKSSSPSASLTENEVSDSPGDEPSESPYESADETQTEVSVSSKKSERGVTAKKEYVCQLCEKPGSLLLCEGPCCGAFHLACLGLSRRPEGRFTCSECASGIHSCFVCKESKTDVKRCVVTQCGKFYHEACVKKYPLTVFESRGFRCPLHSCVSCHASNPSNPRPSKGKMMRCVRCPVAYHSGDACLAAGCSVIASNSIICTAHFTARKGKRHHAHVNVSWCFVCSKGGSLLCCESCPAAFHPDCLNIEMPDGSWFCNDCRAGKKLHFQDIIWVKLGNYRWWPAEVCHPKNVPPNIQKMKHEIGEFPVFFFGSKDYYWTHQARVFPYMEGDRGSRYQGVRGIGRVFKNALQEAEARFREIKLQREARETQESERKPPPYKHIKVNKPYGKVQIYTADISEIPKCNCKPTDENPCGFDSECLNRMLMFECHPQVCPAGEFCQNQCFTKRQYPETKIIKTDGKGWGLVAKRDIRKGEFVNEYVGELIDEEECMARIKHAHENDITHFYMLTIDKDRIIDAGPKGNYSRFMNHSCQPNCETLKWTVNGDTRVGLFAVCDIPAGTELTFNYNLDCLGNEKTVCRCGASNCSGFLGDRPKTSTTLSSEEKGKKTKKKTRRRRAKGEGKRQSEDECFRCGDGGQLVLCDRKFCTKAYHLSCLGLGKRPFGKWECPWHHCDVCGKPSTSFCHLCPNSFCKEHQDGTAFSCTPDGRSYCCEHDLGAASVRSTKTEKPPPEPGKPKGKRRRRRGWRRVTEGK

U-937 = test: Antiproliferative activity against human U-937 cells harboring wild type NSD2 assessed as inhibition of cell growth incubated for 6 days by CCK-8 assay; type: functional, cell-based; conditions: U-937, 144 h
[16] = biological target: Histone-lysine N-methyltransferase NSD2 (Homo sapiens) (UniProt O96028); test: Binding affinity to human recombinant NSD2 (941 to 1240 residues) at 200 uM by saturation transfer difference based NMR analysis
KMS-11 [17] = test: Induction of apoptosis in human KMS-11 cells assessed as live cells at 0.5 uM incubated for 72 hrs by Annexin V-FITC/PI staining based flow cytometry analysis (reference value: 83.1%); type: functional

## CC#CC(=O)NC12CC(NC3=C(Cl)C(=O)c4ncccc4C3=O)(C1)C2
[1]
  IC50: 0.69 µM
[2]
  Tmax: 1.5 h
[3]
  inhibition: Active
[4]
  inhibition: Active
KMS-11 [5]
  Activity: Active
MOLM-13
  IC50: 3.17 µM
[6]
  inhibition: Active
[7]
  inhibition: Active
[8]
  IC50: > 10 µM
HL-60
  IC50: 2.66 µM
[9]
  half-life: 8.53 h
KMS-11 [10]
  Activity: Active
KMS-11 [11]
  inhibition in vivo at 150 mg/kg: 58.4%
[12]
  Activity: Non-Toxic
[13]
  half-life: 6.71 h
[14]
  IC50: > 10 µM
[15]
  IC50: 0.23 µM
U-937
  IC50: 4.9 µM
[16]
  Activity: Active
KMS-11 [17]
  Activity: 63.8%
